The values below come from ChEMBL document CHEMBL1152086, “Synthesis and in vitro anti-HIV and antitumor activity of new 2-chloroethyl thiocarbamates” (1995).

Activity calls are given as the source filed them. The rule behind the calls is not given here.

As a reminder, the GI50 is the concentration that inhibits growth by half.

For assay [1], the system named is NCI. Put plainly: In vitro anticancer activity against 6 NCI ovarian cancer cell lines; inactive. The class given is functional, cell-based.
The subject of assay [2] is NCI. As to the kind of experiment: In vitro anticancer activity against 8 NCI CNS cancer cell lines; inactive. The class given is functional, cell-based.
The subject of a further assay is K562. Put plainly: In vitro anticancer activity against K-562 leukemia cell line. The note with it: Homo sapiens. The class given is functional.
Another assay concerns HL-60. As to the kind of experiment: In vitro anticancer activity against HL-60(TB) leukemia cell line. The conditions noted are these: Homo sapiens. It is filed as functional.
A further assay relates to NSCLC. As to the kind of experiment: In vitro anticancer activity against 11 NCI NSCLC cell lines; inactive. It is filed as functional, cell-based.
Another assay concerns RPMI-8226. Put plainly: In vitro anticancer activity against RPMI-8226 leukemia cell line. The class given is functional. The note with it: Homo sapiens.
Another assay has as its system SCLC. Put plainly: In vitro anticancer activity against 2 NCI SCLC cell lines; inactive. The class given is functional, cell-based.
Assay [3] relates to CCRF-CEM. As to the kind of experiment: In vitro anticancer activity against CCRF-CEM leukemia cell line. The conditions noted are these: Homo sapiens. The class given is functional.
A short description of assay [4]: In vitro anticancer activity against 9 NCI melanoma cell lines; inactive. It is filed as functional.
Another assay concerns MOLT-4. As to the kind of experiment: In vitro anticancer activity against MOLT-4 leukemia cell line. It is filed as functional. The note with it: Homo sapiens.
The test system of assay [5] is NCI. As to the kind of experiment: In vitro anticancer activity against 9 NCI renal cancer cell lines; inactive. The class given is functional, cell-based.
The test system of the next assay is SR. Put plainly: In vitro anticancer activity against SR leukemia cell line. The note with it: Homo sapiens. It is filed as functional.
For a further assay, the system named is Cancer cell lines. Put plainly: In vitro anticancer activity against 9 NCI colon cancer cell lines; inactive. It is filed as functional, cell-based.
For assay [6], the system named is CCRF-CEM. As to the kind of experiment: In vitro anticancer activity against CCRF-CEM leukemia cell line.(Maximum Concentration). It is filed as functional. The note with it: Homo sapiens.

Take `CCOC(=O)CSC(=O)NCCCl`: the outcome (in the assay on NCI [1]; in the assay with NCI [2]; in the assay with NSCLC; with SCLC; in [4]; in the assay on NCI [5]) was inactive. In the assay on Cancer cell lines, the outcome was inactive. Moreover, the 50% growth inhibitory concentration (GI50) in the assay on K562 was 29 µM; in the assay on HL-60, 22.3 µM; with RPMI-8226, above 100 µM; in the assay with CCRF-CEM [3] it was 7.22 µM; with MOLT-4, above 100 µM; in the assay on SR it was above 100 µM.

Take `O=C(NCCCl)SCCO`: the result (in the assay with NCI [1]; with NCI [2]; with NSCLC; in the assay on SCLC; in assay [4]; in the assay with NCI [5]) was inactive. Besides, the result in the assay with Cancer cell lines was inactive. Moreover, the GI50 in the assay with K562, with HL-60, in the assay on RPMI-8226, with MOLT-4, in the assay on CCRF-CEM [6] and in the assay on SR was above 100 µM throughout.

With `O=C(NCCCl)Sc1ccccc1`, the result (in the assay on NCI [1]; in the assay on NCI [2]; with NSCLC; in the assay with SCLC; in assay [4]; with NCI [5]) was inactive. For the same compound, the outcome in the assay with Cancer cell lines was inactive.
